Series [1] concerns beta-adrenergic blocking. Particulars: cited from earlier work.
For series [2] the following is noted: for pharmacokinetic drug-drug interaction between oxybutynin and gabapentin: rat, i.v. 3 mg/kg oxybutynin and 100 mg/kg gabapentin.
Series [3] has as its system bladder capacity. Nature of the series: Dilute acetic acid irritative model, bladder capacity by cystometry in urethane-anesthetized rats. It counts as in vivo, rat. Particulars: for effectiveness of drug alone on bladder capacity: i.v.; for effective dose range of the drug in the isobologram combinations compared with the drug alone: individual animals, return to 31% of saline control. The protocol: Subsequently, three series at markedly lower doses and at different dose ratios were performed for the purposes of isobologram construction (n=4/group).
Subsequent studies aimed at isobologram construction combined the drugs in dose combinations as shown in the table below (low, middle and high doses for each drug paired).
The abdominal cavity was moistened with saline and closed by covering with a thin plastic sheet in order to maintain access to the bladder for emptying purposes.
Bladder capacity data for each animal were normalized to “% Recovery from Irritation,” and this index was used as the measure of efficacy. Data from experiments in which each of the drugs were administered alone were utilized to create theoretical populations of additive effects for each dose (low, mid and high), and these were compared by one-tailed t-test (individual dose comparisons) and by 2-Way ANOVA (across doses) to the actual combination drug data. The means and standard deviations of each individual treatment's “dose-matched” (low, middle, and high) responses were added together to estimate the mean and standard deviation of the theoretical additive populations for which to compare to the actual data obtained from the combination experiments. The theoretical additive effect population N=(Nantimuscarinic+Nα28 subunit modulator)−1. P<0.050 was considered significant.
Isobologram construction consisted of two methods, both utilizing the same data, but plotting the results either as group means or by individual responses. […] When utilizing individual responses for both drugs alone and the combinations listed in the above table, the target value was 31% of saline control. […] For statistical purposes, the data were analyzed making comparisons for each drug, regardless of whether alone or in combination.

The conditions of series [4]: preclinical and clinical studies, cited from earlier work.
The subject of series [5] is painful symptoms associated with diabetic peripheral neuropathy, post-herpetic neuralgia, and neuropathic pain. Particulars: double-blind, placebo-controlled trials; cited from earlier work.
Series [6] concerns nociception induced by formalin and carrageenan; mechanical hyperalgesia and mechanical/thermal allodynia. Particulars: Rose et al. (2002); cited from earlier work.
[7] abbreviates: analyte gabapentin in rat plasma, i.v. 100 mg/kg gabapentin alone (Gab) or with 3 mg/kg oxybutynin (Com), group Mean.
Where [8] appears, read: analyte gabapentin in rat plasma, i.v. 100 mg/kg gabapentin alone (Gab) or with 3 mg/kg oxybutynin (Com), group Mean, outliers excluded.
The mark [9] stands for this setting: analyte gabapentin in rat plasma, i.v. 100 mg/kg gabapentin alone (Gab) or with 3 mg/kg oxybutynin (Com), individual animals.

“And” between values parts separate entries of the source, which are not always exact repeats. Equal values may be shown once. Read-outs that look alike come from different tables or passages of the source.

`CC(C)NCC(O)COc1cccc2ccccc12` (stereo not drawn) [propranolol]: the “potency of L-enantiomer relative to D-enantiomer” value in series [1] is reported as 100 times.

Consider `CCN(CC)CC#CCOC(=O)C(O)(c1ccccc1)C1CCCCC1` (stereo not drawn) [Oxy, 4-diethylaminio-2-butynyl phenylcyclohexyglycolate], for which the “pharmacokinetic drug-drug interaction between oxybutynin and gabapentin” value in series [2] is recorded as “No evidence of drug-drug interaction”. Further, in series [3], the “effectiveness of drug alone on bladder capacity” value is “modest effectiveness” and the “effective dose range of the drug in the isobologram combinations compared with the drug alone” value is “significantly lower”.

On to `CC(OC(=O)NCC1(CC(=O)O)CCCCC1)OC(=O)C(C)C` (stereo not drawn) [XP13512], for which the “blood levels of gabapentin across a broad range of oral doses” value in series [4] (oral) is listed as “dose proportional”. Also, the “absorption from the large intestine” value in series [4] is recorded as “absorbed efficiently”.

Consider `NCC1(CC(=O)O)CCCCC1` [Gab, 1-(aminomethyl) cyclohexaneacetic acid], for which, in series [2] (setting [7]), the “AUC0-∞” value was found to be 1.62e+07 ng·min/mL, the CL turned out to be 6.52 mL/min/kg, the Vz was 1242 mL/kg and the t1/2 amounted to 128 min. In series [2] (setting [8]), this compound came in with an AUC0-t of 9.45e+06 ng·min/mL and a Cmax of 98.6 µg/mL. In addition, in series [2] (setting [9]), the “AUC0-∞” value came out at 1.95e+07 ng·min/mL; the CL came to 5.12 mL/min/kg; the Tmax is 15 min and 30 min; the Vz was 910 mL/kg and 890 mL/kg. For the same compound, the “comparison of Cmax and AUC0-T data for gabapentin between single-drug group and combination (Com) group” value in series [2] (rat plasma, i.v., Table 2) was “no appreciable difference”. Also, the “pharmacokinetic drug-drug interaction between oxybutynin and gabapentin” value in series [2] was “No evidence of drug-drug interaction”. The “efficacy for painful symptoms associated with diabetic peripheral neuropathy, post-herpetic neuralgia, and neuropathic pain” value in series [5] is reported as “effective treatment”. Moreover, in series [3], the “effectiveness of drug alone on bladder capacity” value is listed as “modest effectiveness” and the “effective dose range of the drug in the isobologram combinations compared with the drug alone” value is “significantly lower”. In addition, in series [6], the “effect in neuropathic pain models of mechanical hyperalgesia and mechanical/thermal allodynia” value is recorded as “inhibitory effect”; the “effect on nociception induced by formalin and carrageenan” value is recorded as “block the tonic phase of nociception”.

Consider `CCNCC#CCOC(=O)C(O)(c1ccccc1)C1CCCCC1` (stereo not drawn) [desethyl oxybutynin, N-desethyl-oxybutynin], for which the “comparison of Cmax and AUC0-t data for desethyl oxybutynin between oxybutynin (Oxy) group and combination (Com) group” value in series [2] (rat plasma, i.v., Table 4) is “no appreciable difference”.

The values are drawn from patent publication US20060264509A1, “Methods for treating pain using smooth muscle modulators and a2 subunit calcium channel modulators” (priority 2003, published 2006).
